Active and inactive are the calls of the source. No cut-off for these calls is given here.
Tests used:
A549 [1] = experiment: Cytotoxicity against human A549 cells assessed as cell growth inhibition at 10 uM incubated for 48 hrs by MTT assay relative to control; assay type: functional
A549 [2] = experiment: Cytotoxicity against human A549 cells assessed as cell growth inhibition incubated for 48 hrs by MTT assay; assay type: functional, cell-based; settings: A549, 48 h
A549 [3] = experiment: Induction of cell cycle arrest in human A549 cells assessed as accumulation at G2/M phase at 10 uM incubated for 48 hrs by PI staining based flow cytometry analysis; assay type: functional

| Structure (SMILES) | inhibition at 10 µM (A549 [1]) [%] | IC50 (A549 [2]) [µM] | Activity (A549 [3]) |
| --- | --- | --- | --- |
| CCOC(=O)c1cccc2c3ccccc3n(-c3ncccn3)c12 | 50 |  |  |
| O=C(c1ccccc1)c1cccc2c3ccccc3n(-c3ncccn3)c12 | 50 | 5.32 | Active |
